Like-named read-outs stand apart in the source and are kept apart here.
Legend:
JAK3 = biological target: T1, JAK3 (Homo sapiens, UniProt P52333); assay: Lance Ultra Kinase Assay, recombinant JAK3; type: biochemical; conditions: 5 mM ATP
T1 construct: purchased Carna Biosciences
T1 sequence (P52333 1-1124): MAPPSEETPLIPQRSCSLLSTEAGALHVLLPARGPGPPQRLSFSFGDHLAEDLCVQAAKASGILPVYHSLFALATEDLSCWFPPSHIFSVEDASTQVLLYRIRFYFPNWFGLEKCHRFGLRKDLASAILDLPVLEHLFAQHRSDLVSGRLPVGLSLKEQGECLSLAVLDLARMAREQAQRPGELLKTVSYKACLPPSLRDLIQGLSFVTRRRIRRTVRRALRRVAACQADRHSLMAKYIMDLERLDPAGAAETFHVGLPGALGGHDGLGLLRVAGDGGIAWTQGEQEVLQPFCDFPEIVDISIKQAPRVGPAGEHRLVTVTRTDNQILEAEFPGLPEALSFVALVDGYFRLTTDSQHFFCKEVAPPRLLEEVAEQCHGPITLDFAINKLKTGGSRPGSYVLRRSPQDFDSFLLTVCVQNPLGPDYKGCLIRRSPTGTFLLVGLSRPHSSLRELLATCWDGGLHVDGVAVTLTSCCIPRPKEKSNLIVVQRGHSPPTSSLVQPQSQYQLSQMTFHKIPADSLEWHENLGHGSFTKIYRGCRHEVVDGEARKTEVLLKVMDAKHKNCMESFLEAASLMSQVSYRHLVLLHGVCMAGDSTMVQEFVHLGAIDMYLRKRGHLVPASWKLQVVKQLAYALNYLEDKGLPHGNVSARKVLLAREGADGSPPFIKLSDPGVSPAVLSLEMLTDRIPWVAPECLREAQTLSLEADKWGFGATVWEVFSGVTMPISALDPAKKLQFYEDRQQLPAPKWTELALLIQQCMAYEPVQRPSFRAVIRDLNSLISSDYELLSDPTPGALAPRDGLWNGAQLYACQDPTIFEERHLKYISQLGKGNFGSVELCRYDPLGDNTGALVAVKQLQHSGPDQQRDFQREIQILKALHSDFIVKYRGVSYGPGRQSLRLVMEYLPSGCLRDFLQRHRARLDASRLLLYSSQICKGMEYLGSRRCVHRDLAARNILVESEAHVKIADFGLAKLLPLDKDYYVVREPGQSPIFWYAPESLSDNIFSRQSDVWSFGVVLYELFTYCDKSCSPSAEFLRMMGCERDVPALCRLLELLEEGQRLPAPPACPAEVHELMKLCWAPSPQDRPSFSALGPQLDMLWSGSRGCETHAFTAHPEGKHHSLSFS
Experimental: (§1) Recombinant JAK1, JAK2, JAK3 and TYK2 purchased from Carna Biosciences. The inhibition potency of compounds against JAK1, JAK2, JAK3 and TYK2 was assessed using Lance Ultra Kinase Assay.
(§2) In brief, recombinant kinases were pre-incubated in the presence or absence of compound at room temperature for 15 minutes. The reaction was initiated by the addition of 5 mM ATP and substrate peptide which could be phosphorylated by kinases in the reaction. After 60 minutes incubation, the reaction was stopped by the addition of the detection reagent mix containing EDTA. The fluorescence was measured at 615 nm and 665 nm, respectively with excitation wavelength at 320 nm. The calculated signal ratio of 665 nm/615 nm is proportional to the kinase activity.

JAK2 = biological target: T2, JAK2 (Homo sapiens, UniProt O60674); assay: Lance Ultra Kinase Assay, recombinant JAK2; type: biochemical; conditions: 5 mM ATP
T2 construct: purchased Carna Biosciences
T2 sequence (O60674 whole entry): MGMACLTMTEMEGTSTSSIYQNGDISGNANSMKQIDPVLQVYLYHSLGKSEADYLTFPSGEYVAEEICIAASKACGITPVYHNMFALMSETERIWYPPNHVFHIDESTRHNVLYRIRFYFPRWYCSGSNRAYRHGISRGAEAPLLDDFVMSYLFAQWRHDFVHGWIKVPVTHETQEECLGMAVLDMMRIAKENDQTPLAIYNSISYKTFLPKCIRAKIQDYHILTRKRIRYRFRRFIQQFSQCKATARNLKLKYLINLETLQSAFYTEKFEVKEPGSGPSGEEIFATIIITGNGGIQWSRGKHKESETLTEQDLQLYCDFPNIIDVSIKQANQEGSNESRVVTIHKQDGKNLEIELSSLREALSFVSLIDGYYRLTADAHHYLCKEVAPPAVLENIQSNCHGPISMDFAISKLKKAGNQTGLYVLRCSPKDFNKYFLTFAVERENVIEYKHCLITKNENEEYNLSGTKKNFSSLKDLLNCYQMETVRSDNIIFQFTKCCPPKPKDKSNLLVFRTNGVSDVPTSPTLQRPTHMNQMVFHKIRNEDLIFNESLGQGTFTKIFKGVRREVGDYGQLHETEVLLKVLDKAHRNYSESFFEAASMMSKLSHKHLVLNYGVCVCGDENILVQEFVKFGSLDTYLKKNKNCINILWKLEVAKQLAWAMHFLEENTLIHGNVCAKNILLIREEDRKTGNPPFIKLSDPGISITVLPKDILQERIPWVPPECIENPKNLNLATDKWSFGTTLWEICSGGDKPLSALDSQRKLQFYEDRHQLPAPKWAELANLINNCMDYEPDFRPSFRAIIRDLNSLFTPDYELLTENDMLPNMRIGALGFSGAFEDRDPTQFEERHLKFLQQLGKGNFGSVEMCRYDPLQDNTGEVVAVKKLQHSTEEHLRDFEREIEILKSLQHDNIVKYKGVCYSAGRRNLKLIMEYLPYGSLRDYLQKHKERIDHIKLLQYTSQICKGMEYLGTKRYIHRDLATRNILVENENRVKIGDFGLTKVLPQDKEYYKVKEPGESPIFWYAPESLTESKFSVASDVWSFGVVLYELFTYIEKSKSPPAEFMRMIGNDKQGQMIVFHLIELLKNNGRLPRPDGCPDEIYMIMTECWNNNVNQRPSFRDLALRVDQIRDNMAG
Experimental: as §1, §2

TYK2 = biological target: T3, TYK2 (Homo sapiens, UniProt P29597); assay: Lance Ultra Kinase Assay, recombinant TYK2; type: biochemical; conditions: 5 mM ATP
T3 construct: purchased Carna Biosciences
T3 sequence (P29597 whole entry): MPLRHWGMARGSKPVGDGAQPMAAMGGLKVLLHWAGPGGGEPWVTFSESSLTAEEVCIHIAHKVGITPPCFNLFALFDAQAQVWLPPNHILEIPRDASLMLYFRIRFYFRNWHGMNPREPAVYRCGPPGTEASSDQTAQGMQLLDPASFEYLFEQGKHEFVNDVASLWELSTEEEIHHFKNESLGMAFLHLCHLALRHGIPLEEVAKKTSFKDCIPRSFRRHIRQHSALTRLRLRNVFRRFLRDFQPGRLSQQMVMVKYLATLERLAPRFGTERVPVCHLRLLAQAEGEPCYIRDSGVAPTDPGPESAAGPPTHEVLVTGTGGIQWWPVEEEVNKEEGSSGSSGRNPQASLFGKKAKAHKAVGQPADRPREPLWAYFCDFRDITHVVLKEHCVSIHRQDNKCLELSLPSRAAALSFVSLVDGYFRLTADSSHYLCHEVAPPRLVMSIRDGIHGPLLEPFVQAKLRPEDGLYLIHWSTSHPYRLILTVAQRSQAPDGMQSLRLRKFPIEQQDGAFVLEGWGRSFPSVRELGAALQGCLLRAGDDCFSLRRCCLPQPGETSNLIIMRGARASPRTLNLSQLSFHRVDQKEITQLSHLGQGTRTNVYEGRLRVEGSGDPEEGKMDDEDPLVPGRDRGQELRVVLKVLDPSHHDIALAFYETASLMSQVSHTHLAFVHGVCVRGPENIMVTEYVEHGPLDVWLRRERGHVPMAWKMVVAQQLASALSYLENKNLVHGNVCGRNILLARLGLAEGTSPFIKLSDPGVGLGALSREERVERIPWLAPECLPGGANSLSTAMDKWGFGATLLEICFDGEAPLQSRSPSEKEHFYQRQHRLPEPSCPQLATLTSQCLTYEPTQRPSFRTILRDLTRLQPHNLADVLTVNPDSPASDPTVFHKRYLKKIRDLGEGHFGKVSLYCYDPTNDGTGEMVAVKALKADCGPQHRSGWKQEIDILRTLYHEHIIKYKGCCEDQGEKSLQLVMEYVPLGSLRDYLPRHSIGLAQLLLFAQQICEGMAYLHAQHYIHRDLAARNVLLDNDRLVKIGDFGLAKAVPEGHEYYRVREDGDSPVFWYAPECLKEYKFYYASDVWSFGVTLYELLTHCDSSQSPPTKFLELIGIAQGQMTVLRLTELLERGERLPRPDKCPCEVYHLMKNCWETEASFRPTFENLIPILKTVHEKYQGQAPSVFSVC
Experimental: as §1, §2

JAK1 = biological target: T4, JAK1 (Homo sapiens, UniProt P23458); assay: Lance Ultra Kinase Assay, recombinant JAK1; type: biochemical; conditions: 5 mM ATP
T4 construct: purchased Carna Biosciences
T4 sequence (P23458 whole entry): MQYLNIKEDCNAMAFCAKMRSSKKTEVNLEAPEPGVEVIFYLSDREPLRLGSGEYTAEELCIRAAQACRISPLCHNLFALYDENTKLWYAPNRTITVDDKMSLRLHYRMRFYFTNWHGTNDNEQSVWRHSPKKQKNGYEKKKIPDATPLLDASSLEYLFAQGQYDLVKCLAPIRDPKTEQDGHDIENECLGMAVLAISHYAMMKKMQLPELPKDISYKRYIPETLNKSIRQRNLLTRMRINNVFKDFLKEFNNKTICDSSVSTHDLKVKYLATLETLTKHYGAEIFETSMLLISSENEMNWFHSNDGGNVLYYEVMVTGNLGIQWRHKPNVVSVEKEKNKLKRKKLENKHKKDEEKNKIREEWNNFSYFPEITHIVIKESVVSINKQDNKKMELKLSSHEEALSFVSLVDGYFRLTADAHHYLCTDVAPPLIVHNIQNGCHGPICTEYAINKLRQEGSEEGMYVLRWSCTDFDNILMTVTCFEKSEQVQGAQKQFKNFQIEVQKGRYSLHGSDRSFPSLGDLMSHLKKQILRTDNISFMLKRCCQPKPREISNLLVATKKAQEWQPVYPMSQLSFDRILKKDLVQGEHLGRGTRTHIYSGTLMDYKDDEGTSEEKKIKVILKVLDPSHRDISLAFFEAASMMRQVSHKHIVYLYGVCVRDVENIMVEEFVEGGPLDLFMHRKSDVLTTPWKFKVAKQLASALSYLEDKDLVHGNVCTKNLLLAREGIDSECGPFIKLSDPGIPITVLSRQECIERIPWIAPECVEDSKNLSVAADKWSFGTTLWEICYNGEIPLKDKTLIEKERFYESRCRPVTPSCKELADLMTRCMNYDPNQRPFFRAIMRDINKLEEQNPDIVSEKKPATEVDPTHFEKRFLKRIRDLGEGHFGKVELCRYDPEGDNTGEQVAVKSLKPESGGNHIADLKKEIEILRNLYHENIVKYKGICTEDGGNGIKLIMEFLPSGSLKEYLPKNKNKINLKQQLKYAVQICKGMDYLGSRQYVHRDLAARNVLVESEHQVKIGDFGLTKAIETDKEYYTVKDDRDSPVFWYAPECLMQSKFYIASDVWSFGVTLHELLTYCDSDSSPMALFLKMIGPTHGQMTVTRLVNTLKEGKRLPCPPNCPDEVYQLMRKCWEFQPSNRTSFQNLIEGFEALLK
Experimental: as §1, §2

phosphorylation of STAT6 = assay: Cellular p-STAT6 assay, IL-13 stimulated THP-1 cells, flow cytometry; type: cell-based; conditions: IL-13 10 ng/ml, read-out: pSTAT6 IC50
Experimental: To detect phosphorylated STAT6 (pSTAT6), THP-1 cells were harvested by centrifugation at 250 g for 5 min and resuspended in assay medium (RPMI1640+10% FBS) to 2×10^5 cells/well. Test compounds were applied to assay plates in serial dilution from 1 μM to 0.3 nM in DMSO. THP-1 cells were incubated with serial diluted compounds for 60 min at room temperature, followed by stimulation of interleukin (IL-13, 10 ng/ml) for 30 min, fixed in Cytofix buffer (BD Biosciences), and permeabilized in 90% methanol on ice. PE anti-pSTAT6 (BD Biosciences) antibodies were stained for 60 min at room temperature before being analyzed by flow cytometry. In the assay the compounds were thus diluted and dose-response curves for inhibition of the signal determine the IC50 for the compounds.

[1] = Homo sapiens, THP-1, THP-1 cells

IC50 (JAK3)	IC50 (JAK2)	IC50 (TYK2)	IC50 (JAK1)	IC50 (phosphorylation of STAT6; [1])	IC50 (phosphorylation of STAT6; THP-1 cells)	SMILES
> 10000 nM	58 nM	634 nM	0.21 nM	6.2 nM	–	COC[C@H](C(=O)Nc1cccc2c(-c3nc(Nc4cnc(C)c(C(=O)OC)c4)ncc3F)c[nH]c12)N1CCN(C)CC1 [Example 7, methyl (R)-5-((5-fluoro-4-(7-(3-methoxy-2-(4-methylpiperazin-1-yl)propanamido)-1H-indol-3-yl)pyrimidin-2-yl)amino)-2-methylnicotinate]
7700 nM	4 nM	156 nM	0.19 nM	4.5 nM	–	COC[C@H](C(=O)Nc1cccc2c(-c3nc(Nc4cnc(CO)c(C)c4)ncc3F)c[nH]c12)N1CCN(C)CC1 [Example 3, (R)-N-(3-(5-fluoro-2-((6-(hydroxymethyl)-5-methylpyridin-3-yl)amino)pyrimidin-4-yl)-1H-indol-7-yl)-3-methoxy-2-(4-methylpiperazin-1-yl)propanamide]
> 10000 nM	198 nM	1260 nM	0.32 nM	18.8 nM	–	COCCOc1ccc(Nc2ncc(F)c(-c3c[nH]c4c(NC(=O)[C@@H](COC)N5CCN(C)CC5)cccc34)n2)cn1 [Example 65, (R)-N-(3-(5-fluoro-2-((6-(2-methoxyethoxy)pyridin-3-yl)amino)pyrimidin-4-yl)-1H-indol-7-yl)-3-methoxy-2-(4-methylpiperazin-1-yl)propanamide]
> 10000 nM	74 nM	939 nM	0.31 nM	–	9.8 nM	COC[C@H](C(=O)Nc1cccc2c(-c3nc(Nc4ccc(C(C)O)nc4)ncc3F)c[nH]c12)N1CCN(C)CC1 (single isomer, unassigned; isomer 1) [Example 29, 5-fluoro-2-((6-(1-hydroxyethyl)pyridin-3-yl)amino)pyrimidin-4-yl)-1H-indol-7-yl)-3-methoxy-2-(4-methylpiperazin-1-yl)propanamide (isomer 1)]
> 10000 nM	81 nM	556 nM	0.13 nM	14 nM	–	COC[C@H](C(=O)Nc1cccc2c(-c3nc(Nc4ccc5ncsc5c4)ncc3F)c[nH]c12)N1CCN(C)CC1 [Example 47, (R)-N-(3-(2-(benzo[d]thiazol-6-ylamino)-5-fluoropyrimidin-4-yl)-1H-indol-7-yl)-3-methoxy-2-(4-methylpiperazin-1-yl)propanamide]
> 10000 nM	322 nM	> 10000 nM	1.52 nM	13.5 nM	–	COC[C@H](C(=O)Nc1cccc2c(-c3nc(Nc4ccc5c(CO)ncn5c4)ncc3F)c[nH]c12)N1CCN(C)CC1 [Example 46, (R)-N-(3-(5-fluoro-2-((1-(hydroxymethyl)imidazo[1,5-a]pyridin-6-yl)amino)pyrimidin-4-yl)-1H-indol-7-yl)-3-methoxy-2-(4-methylpiperazin-1-yl)propanainide]
> 10000 nM	363 nM	2170 nM	0.43 nM	15 nM	–	COC[C@H](C(=O)Nc1cccc2c(-c3nc(Nc4ccc(NC(=O)OC)nc4)ncc3F)c[nH]c12)N1CCN(C)CC1 [Example 52, methyl (R)-(5-((5-fluoro-4-(7-(3-methoxy-2-(4-methylpiperazin-1-yl)propanamido)-1H-indol-3-yl)pyrimidin-2-yl)amino)pyridin-2-yl)carbamate]
> 10000 nM	218 nM	1310 nM	0.15 nM	10.4 nM	–	CCOC(=O)Cc1ccc(Nc2ncc(F)c(-c3c[nH]c4c(NC(=O)[C@@H](COC)N5CCN(C)CC5)cccc34)n2)cn1 [Example 31, ethyl (R)-2-(5-((5-fluoro-4-(7-(3-methoxy-2-(4-methylpiperazin-1-yl)propanamido)-1H-indol-3-yl)pyrimidin-2-yl)amino)pyridin-2-yl)acetate]
> 10000 nM	215 nM	–	0.27 nM	7.7 nM	–	COC[C@H](C(=O)Nc1cccc2c(-c3nc(Nc4cnc5cn[nH]c5c4)ncc3F)c[nH]c12)N1CCN(C)CC1 [Example 19, (R)-N-(3-(2-((1H-pyrazolo[4,3-b]pyridin-6-yl)amino)-5-fluoropyrimidin-4-yl)-1H-indol-7-yl)-3-methoxy-2-(4-methylpiperazin-1-yl)propanamide]
5260 nM	16 nM	560 nM	0.07 nM	12.8 nM	–	COC[C@H](C(=O)Nc1cccc2c(-c3nc(Nc4ccc5c(c4)CCOC5=O)ncc3F)c[nH]c12)N1CCN(C)CC1 [Example 42, (R)-N-(3-(5-fluoro-2-((1-oxoisochroman-6-yl)amino)pyrimidin-4-yl)-1H-indol-7-yl)-3-methoxy-2-(4-methylpiperazin-1-yl)propanamide]
9280 nM	87 nM	1490 nM	0.16 nM	10.6 nM	–	COC[C@H](C(=O)Nc1cccc2c(-c3nc(Nc4ccc5[nH]ncc5c4)ncc3F)c[nH]c12)N1CCN(C)CC1 [Example 32, (R)-N-(3-(2-((1H-indazol-5-yl)amino)-5-fluoropyrimidin-4-yl)-1H-indol-7-yl)-3-methoxy-2-(4-methylpiperazin-1-yl)propanamide]
> 10000 nM	316 nM	974 nM	0.23 nM	11.9 nM	–	CNC(=O)Cc1ccc(Nc2ncc(F)c(-c3c[nH]c4c(NC(=O)[C@@H](COC)N5CCN(C)CC5)cccc34)n2)cn1 [Example 39, (R)-N-(3-(5-fluoro-2-((6-(2-(methylamino)-2-oxoethyl)pyridin-3-yl)amino)pyrimidin-4-yl)-1H-indol-7-yl)-3-methoxy-2-(4-methylpiperazin-1-yl)propanamide]
> 10000 nM	467 nM	5250 nM	0.24 nM	8.5 nM	–	COC[C@H](C(=O)Nc1cccc2c(-c3nc(Nc4ccc(-c5ncco5)nc4)ncc3F)c[nH]c12)N1CCN(C)CC1 [Example 22, (R)-N-(3-(5-fluoro-2-((6-(oxazol-2-yl)pyridin-3-yl)amino)pyrimidin-4-yl)-1H-indol-7-yl)-3-methoxy-2-(4-methylpiperazin-1-yl)propanamide]
> 10000 nM	147 nM	> 10000 nM	0.27 nM	13.2 nM	–	COC[C@H](C(=O)Nc1cccc2c(-c3nc(Nc4ccc5c(C(=O)OC)n[nH]c5c4)ncc3F)c[nH]c12)N1CCN(C)CC1 [Example 44, methyl (R)-6-((5-fluoro-4-(7-(3-methoxy-2-(4-methylpiperazin-1-yl)propanamido)-1H-indol-3-yl)pyrimidin-2-yl)amino)-1H-indazole-3-carboxylate]
7730 nM	22 nM	1090 nM	0.14 nM	7.6 nM	–	COC[C@H](C(=O)Nc1cccc2c(-c3nc(Nc4cnn(C5CCOCC5)c4)ncc3F)c[nH]c12)N1CCN(C)CC1 [Example 18, (R)-N-(3-(5-fluoro-2-((1-(tetrahydro-2H-pyran-4-yl)-1H-pyrazol-4-yl)amino)pyrimidin-4-yl)-1H-indol-7-yl)-3-methoxy-2-(4-methylpiperazin-1-yl)propanamide]

Source: patent US12606544B2, “JAK1 selective kinase inhibitor” (DIZAL (JIANGSU) PHARMACEUTICAL CO., LTD., priority 2019, dated 2026)
